This is an account of results in ChEMBL document CHEMBL1201862, “PubChem BioAssay data set” (2004).

Assay type in all cases: functional
In assay [1] the target is T1, Rac GTPase-activating protein 1 (Homo sapiens, UniProt Q9H0H5).
T1 sequence (Q9H0H5 whole entry): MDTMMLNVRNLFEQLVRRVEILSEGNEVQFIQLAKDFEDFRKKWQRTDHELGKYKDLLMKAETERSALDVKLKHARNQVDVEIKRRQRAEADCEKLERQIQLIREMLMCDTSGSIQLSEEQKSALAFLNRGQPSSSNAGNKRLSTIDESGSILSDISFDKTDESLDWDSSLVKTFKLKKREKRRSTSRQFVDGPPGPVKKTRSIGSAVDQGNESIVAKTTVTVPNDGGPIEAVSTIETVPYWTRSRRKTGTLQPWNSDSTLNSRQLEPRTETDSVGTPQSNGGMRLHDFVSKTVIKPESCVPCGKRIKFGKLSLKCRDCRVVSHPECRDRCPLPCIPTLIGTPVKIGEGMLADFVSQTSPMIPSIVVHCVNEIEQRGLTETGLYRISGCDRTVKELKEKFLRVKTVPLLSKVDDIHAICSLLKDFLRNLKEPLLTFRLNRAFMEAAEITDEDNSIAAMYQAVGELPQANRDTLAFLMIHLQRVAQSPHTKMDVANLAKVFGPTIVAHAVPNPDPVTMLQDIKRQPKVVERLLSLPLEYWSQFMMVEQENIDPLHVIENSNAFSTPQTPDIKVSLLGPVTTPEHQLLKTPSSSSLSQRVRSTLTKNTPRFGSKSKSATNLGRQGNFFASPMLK
Nature of the assay: MgcRacGAP GTPase-activating activity inhibitors, confirmation, biochemical, ADP Hunter fluorescence, primary and confirmatory (AID 624330).

The target of assay [2] is T2, Aurora kinase A (Homo sapiens, UniProt O14965).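 Note: value from the Navigating the Kinome kinase panel profiling, panel entry STK6.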
T2 sequence (O14965 whole entry): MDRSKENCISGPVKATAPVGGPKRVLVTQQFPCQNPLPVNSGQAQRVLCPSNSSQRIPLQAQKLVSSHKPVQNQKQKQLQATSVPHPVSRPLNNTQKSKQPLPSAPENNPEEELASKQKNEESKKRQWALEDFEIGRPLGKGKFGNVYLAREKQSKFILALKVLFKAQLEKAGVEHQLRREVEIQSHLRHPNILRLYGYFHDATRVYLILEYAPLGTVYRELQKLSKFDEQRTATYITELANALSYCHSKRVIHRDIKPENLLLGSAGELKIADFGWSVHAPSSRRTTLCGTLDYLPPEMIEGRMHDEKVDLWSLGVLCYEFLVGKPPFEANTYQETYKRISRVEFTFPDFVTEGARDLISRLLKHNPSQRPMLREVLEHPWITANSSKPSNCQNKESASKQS

Assay [3] has as its target Serine/threonine-protein kinase pim-1 (Homo sapiens, UniProt P11309).
The target of assay [4] is T3, Serine/threonine-protein kinase Chk1 (Homo sapiens, UniProt O14757).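 Note: measured as one member of a kinome-wide kinase profiling panel.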
T3 sequence (O14757 whole entry): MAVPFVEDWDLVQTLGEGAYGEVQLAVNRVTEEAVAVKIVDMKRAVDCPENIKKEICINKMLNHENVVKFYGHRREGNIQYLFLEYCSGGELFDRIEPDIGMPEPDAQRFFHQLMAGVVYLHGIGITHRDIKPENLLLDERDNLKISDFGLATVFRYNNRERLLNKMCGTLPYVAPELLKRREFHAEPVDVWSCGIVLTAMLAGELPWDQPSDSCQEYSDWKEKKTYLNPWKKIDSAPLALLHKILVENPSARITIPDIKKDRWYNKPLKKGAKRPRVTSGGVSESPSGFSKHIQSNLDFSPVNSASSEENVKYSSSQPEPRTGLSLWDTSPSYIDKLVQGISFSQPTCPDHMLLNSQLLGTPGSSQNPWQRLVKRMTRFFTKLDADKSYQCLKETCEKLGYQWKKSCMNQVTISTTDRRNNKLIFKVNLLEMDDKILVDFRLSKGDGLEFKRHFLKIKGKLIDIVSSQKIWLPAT

The target in assay [5] is Platelet-derived growth factor receptor alpha (Homo sapiens, UniProt P16234). Description: Navigating the Kinome. Panel member name: PDGFRA.
Sequence of Platelet-derived growth factor receptor alpha (P16234 whole entry): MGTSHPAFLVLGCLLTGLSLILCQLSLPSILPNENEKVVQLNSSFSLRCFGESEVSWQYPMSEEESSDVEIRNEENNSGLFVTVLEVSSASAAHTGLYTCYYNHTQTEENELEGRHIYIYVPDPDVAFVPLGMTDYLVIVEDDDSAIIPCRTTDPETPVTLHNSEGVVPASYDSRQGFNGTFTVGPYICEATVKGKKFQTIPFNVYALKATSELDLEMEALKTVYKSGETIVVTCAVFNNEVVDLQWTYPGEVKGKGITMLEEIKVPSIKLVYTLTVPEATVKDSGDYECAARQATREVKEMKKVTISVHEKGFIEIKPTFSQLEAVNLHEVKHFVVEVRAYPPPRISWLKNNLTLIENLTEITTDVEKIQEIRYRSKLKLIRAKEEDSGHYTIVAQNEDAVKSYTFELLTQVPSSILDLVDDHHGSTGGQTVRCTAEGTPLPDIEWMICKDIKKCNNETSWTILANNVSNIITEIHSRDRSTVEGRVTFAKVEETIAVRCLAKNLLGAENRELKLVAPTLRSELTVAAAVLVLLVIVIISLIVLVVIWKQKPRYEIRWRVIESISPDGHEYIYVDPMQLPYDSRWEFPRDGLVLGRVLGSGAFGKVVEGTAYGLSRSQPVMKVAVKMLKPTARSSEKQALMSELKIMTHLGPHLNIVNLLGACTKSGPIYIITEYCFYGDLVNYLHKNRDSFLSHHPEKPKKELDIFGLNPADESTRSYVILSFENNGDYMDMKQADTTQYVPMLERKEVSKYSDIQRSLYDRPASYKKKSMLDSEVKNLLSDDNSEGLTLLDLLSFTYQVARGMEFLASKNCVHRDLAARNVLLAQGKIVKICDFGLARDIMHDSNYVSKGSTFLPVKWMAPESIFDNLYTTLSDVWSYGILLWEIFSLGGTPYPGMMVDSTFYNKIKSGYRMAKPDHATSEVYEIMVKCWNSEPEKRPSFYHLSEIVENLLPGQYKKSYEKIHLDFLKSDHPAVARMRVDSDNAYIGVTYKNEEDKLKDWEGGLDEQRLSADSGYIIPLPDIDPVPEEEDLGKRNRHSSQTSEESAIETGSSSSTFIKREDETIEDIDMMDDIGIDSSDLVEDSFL
The target in assay [6] is Aurora kinase B (Homo sapiens, UniProt Q96GD4).
Sequence of Aurora kinase B (Q96GD4 whole entry): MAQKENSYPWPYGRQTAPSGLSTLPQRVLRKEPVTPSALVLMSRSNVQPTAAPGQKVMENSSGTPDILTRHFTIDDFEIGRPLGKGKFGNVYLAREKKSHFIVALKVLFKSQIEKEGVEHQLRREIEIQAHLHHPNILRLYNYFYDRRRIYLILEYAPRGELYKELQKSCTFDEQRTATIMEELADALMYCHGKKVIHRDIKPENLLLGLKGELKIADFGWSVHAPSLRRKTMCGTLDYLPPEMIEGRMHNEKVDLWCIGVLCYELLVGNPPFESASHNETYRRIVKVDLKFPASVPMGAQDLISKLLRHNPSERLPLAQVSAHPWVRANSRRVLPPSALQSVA
The target of assay [7] is T4, Serine/threonine-protein kinase Nek2 (Homo sapiens, UniProt P51955).
T4 sequence (P51955 whole entry): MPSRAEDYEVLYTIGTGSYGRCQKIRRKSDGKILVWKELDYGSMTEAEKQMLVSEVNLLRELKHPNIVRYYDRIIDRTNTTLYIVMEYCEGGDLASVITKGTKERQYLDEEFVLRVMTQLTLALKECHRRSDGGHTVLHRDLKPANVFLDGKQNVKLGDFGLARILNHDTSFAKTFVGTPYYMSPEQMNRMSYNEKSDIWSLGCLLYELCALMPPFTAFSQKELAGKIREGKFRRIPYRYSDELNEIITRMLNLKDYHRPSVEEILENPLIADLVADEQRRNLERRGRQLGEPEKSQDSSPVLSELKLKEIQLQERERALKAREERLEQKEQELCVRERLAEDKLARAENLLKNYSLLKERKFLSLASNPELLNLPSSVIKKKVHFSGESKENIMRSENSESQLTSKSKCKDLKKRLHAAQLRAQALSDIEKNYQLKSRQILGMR

For assay [8], the target named is T5, Serine/threonine-protein kinase TBK1 (Homo sapiens, UniProt Q9UHD2).
T5 sequence (Q9UHD2 whole entry): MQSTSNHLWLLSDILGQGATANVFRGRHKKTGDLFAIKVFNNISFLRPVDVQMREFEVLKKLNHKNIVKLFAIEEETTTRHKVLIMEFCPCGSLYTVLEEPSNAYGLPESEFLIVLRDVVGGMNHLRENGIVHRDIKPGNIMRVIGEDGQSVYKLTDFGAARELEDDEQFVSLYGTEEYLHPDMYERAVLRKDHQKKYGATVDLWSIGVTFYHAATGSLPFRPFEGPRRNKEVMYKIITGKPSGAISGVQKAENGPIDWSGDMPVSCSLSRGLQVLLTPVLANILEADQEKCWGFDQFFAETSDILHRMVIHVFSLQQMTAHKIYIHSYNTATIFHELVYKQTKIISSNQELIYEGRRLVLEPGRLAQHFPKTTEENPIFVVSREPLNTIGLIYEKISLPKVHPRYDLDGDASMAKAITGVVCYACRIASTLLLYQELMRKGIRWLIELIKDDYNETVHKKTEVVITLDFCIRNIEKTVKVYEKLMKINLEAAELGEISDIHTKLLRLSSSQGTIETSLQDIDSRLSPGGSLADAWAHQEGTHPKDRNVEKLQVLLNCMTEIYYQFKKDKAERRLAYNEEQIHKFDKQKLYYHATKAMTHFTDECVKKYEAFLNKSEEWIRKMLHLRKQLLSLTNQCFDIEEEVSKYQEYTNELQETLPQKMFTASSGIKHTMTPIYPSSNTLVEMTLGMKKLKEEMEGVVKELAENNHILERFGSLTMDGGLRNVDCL
Nature of the assay: Navigating the Kinome. Panel member name: TBK1.

Assay [9] deals with Dual specificity mitogen-activated protein kinase kinase 1 (Homo sapiens, UniProt Q02750). Nature of the assay: Navigating the Kinome. Panel member name: MAP2K1.
Sequence of Dual specificity mitogen-activated protein kinase kinase 1 (Q02750 whole entry): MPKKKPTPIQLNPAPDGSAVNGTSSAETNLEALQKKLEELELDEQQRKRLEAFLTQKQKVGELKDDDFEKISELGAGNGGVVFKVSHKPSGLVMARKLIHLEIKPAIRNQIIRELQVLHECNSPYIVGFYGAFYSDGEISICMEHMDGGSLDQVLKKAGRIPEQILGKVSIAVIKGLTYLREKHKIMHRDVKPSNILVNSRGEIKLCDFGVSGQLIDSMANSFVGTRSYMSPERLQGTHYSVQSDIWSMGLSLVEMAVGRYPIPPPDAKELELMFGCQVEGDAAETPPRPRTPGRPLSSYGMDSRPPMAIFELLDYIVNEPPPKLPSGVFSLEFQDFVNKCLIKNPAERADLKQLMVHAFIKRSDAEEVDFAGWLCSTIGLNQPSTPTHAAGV

Activity calls are given as the source filed them.

Sequence of Serine/threonine-protein kinase pim-1 (P11309 whole entry): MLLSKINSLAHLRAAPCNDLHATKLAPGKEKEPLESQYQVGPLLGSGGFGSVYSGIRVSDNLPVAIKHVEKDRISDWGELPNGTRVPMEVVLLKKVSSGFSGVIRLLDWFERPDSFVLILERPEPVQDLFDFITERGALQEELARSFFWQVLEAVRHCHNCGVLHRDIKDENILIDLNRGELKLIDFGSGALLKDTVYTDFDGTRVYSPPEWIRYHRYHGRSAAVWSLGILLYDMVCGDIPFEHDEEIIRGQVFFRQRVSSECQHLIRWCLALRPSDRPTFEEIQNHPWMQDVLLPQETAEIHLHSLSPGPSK

As to `CCN(CC)CCOc1ccc2c(c1)C(=NNC(=O)c1ccccn1)c1cc(OCCN(CC)CC)ccc1-2`, in assay [1], the IC50 (commonly the point on the concentration scale where inhibition reaches its midpoint) is 31300 nM (active).
Same read-out and setting: the same measure for `O=C(O)c1ccc2c(c1)[C@@H]1C=CC[C@@H]1[C@H](c1ccccn1)N2`: 360000 nM (active); for `COc1cc2cc(NC(C)=O)cc(NCc3ccccc3)c2cc1OC`: 49600 nM (active).
On to `O=C1Nc2cc(-c3ccc(O)cc3)ccc2C1=Cc1ccc[nH]1`, for which the Ki – broadly, the dissociation constant of the complex between target and ligand, obtained from inhibition or displacement – is > 1580 nM (inactive) in [2]; 251 nM (active) in assay [3]; 20 nM (active) in [4]; 501 nM (active) in [5]; 20 nM (active) in assay [6]; > 3160 nM (inactive) in assay [7]. The Ki in [8] and in [9] was 1260 nM (active) throughout.
As for `NC(COc1cncc(-c2ccc3c(c2)C(=Cc2ccc[nH]2)C(=O)N3)c1)Cc1ccccc1` (configuration not stated), the Ki in [2] is 251 nM (active); in [3], 631 nM (active); in assay [4], 251 nM (active); in assay [5] it was 126 nM (active); in assay [6], 39.8 nM (active); in assay [7] it was 1260 nM (active). In addition, the Ki in assay [8] is 7.94 nM (active); in [9], 316 nM (active).
Take `O=C1Cc2cc(-c3ccccc3)cnc2N1`: the Ki in assay [2] is 20000 nM (active); in assay [3] it was 50100 nM (active); in assay [4] it was 3980 nM (active); in assay [5] it was 39800 nM (active); in [6] it was 31600 nM (active); in [7], 39800 nM (active). The Ki in [8] and in assay [9] was 79400 nM (active) in each case.
